# Assay results published in PubChem BioAssay (NCI).
#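 Each compound was tested at five concentrations against cells in 96-well plates for 48 hours. GI50: concentration for 50% inhibition of growth. TGI is the concentration that stops growth completely.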
# Assays:
# Assay in all cases: NCI tumour cell line growth inhibition, 48 h
# SK-OV-3 ovarian = test system: SK-OV-3 ovarian
# MOLT-4 leukemia = test system: MOLT-4 leukemia
# ACHN renal = test system: ACHN renal
# U251 CNS = test system: U251 CNS
# HOP-92 NSCLC = test system: HOP-92 NSCLC
# OVCAR-3 ovarian = test system: OVCAR-3 ovarian
# M14 melanoma = test system: M14 melanoma
# 786-0 renal = test system: 786-0 renal
# T-47D breast = test system: T-47D breast
# SK-MEL-28 melanoma = test system: SK-MEL-28 melanoma
# HS 578T breast = test system: HS 578T breast
# UACC-62 melanoma = test system: UACC-62 melanoma
# MDA-MB-231 breast = test system: MDA-MB-231 breast
# HL-60(TB) leukemia = test system: HL-60(TB) leukemia
# KM12 colon = test system: KM12 colon
# RXF 393 renal = test system: RXF 393 renal
# MDA-MB-435 = test system: MDA-MB-435
# A549 NSCLC = test system: A549 NSCLC
# TK-10 renal = test system: TK-10 renal
# SF-268 CNS = test system: SF-268 CNS
# NCI-H460 lung = test system: NCI-H460 lung
# HCC-2998 colon = test system: HCC-2998 colon
# MALME-3M melanoma = test system: MALME-3M melanoma
# SW-620 colon = test system: SW-620 colon
# SK-MEL-5 melanoma = test system: SK-MEL-5 melanoma
# K-562 leukemia = test system: K-562 leukemia
# IGROV1 ovarian = test system: IGROV1 ovarian
# SK-MEL-2 melanoma = test system: SK-MEL-2 melanoma
# COLO 205 colon = test system: COLO 205 colon
# NCI-H23 lung = test system: NCI-H23 lung
# OVCAR-8 ovarian = test system: OVCAR-8 ovarian
# HCT-116 colon = test system: HCT-116 colon
# MCF7 breast = test system: MCF7 breast
# SF-295 CNS = test system: SF-295 CNS
# NCI-H226 lung = test system: NCI-H226 lung
# CCRF-CEM leukemia = test system: CCRF-CEM leukemia
# UO-31 renal = test system: UO-31 renal
# HT29 colon = test system: HT29 colon
# SF-539 CNS = test system: SF-539 CNS
# BT-549 breast = test system: BT-549 breast
# SN12C renal = test system: SN12C renal
# PC-3 prostate = test system: PC-3 prostate
# UACC-257 melanoma = test system: UACC-257 melanoma
# MDA-MB-468 breast = test system: MDA-MB-468 breast
# NCI-H522 lung = test system: NCI-H522 lung
# HOP-62 NSCLC = test system: HOP-62 NSCLC
# DU-145 prostate = test system: DU-145 prostate
# HCT-15 colon = test system: HCT-15 colon
# EKVX NSCLC = test system: EKVX NSCLC
# SNB-75 CNS = test system: SNB-75 CNS
# A498 renal = test system: A498 renal
# NCI/ADR-RES ovarian = test system: NCI/ADR-RES ovarian
# OVCAR-4 ovarian = test system: OVCAR-4 ovarian
# SNB-19 CNS = test system: SNB-19 CNS
# OVCAR-5 ovarian = test system: OVCAR-5 ovarian
# CAKI-1 renal = test system: CAKI-1 renal
# LOX IMVI melanoma = test system: LOX IMVI melanoma
# RPMI-8226 leukemia = test system: RPMI-8226 leukemia
compound,measurement,setting,value
Cn1cc(NC(=O)c2cc(NC(=O)c3ccc(/C=C/c4ccccc4)cc3)cn2C)cc1C(=O)NCCCN1CCOCC1,GI50,SK-OV-3 ovarian,> 28 µM
same,TGI,SK-OV-3 ovarian,> 28 µM
same,GI50,MOLT-4 leukemia,7.96 µM
same,TGI,MOLT-4 leukemia,> 28 µM
same,GI50,ACHN renal,18.6 µM
same,TGI,ACHN renal,> 28 µM
same,GI50,U251 CNS,10.5 µM
same,TGI,U251 CNS,> 28 µM
same,GI50,HOP-92 NSCLC,3.15 µM
same,TGI,HOP-92 NSCLC,14.9 µM
same,GI50,OVCAR-3 ovarian,6.82 µM
same,TGI,OVCAR-3 ovarian,> 28 µM
same,GI50,M14 melanoma,14.7 µM
same,TGI,M14 melanoma,> 28 µM
same,GI50,786-0 renal,8.59 µM
same,TGI,786-0 renal,> 28 µM
same,GI50,T-47D breast,5.59 µM
same,TGI,T-47D breast,> 28 µM
same,GI50,SK-MEL-28 melanoma,> 28 µM
same,TGI,SK-MEL-28 melanoma,> 28 µM
same,GI50,HS 578T breast,6.14 µM
same,TGI,HS 578T breast,> 28 µM
same,GI50,UACC-62 melanoma,21.2 µM
same,TGI,UACC-62 melanoma,> 28 µM
same,GI50,MDA-MB-231 breast,9.18 µM
same,TGI,MDA-MB-231 breast,> 28 µM
same,GI50,HL-60(TB) leukemia,7.49 µM
same,TGI,HL-60(TB) leukemia,> 28 µM
same,GI50,KM12 colon,8.07 µM
same,TGI,KM12 colon,> 28 µM
same,GI50,RXF 393 renal,2.08 µM
same,TGI,RXF 393 renal,18 µM
same,GI50,MDA-MB-435,8.59 µM
same,TGI,MDA-MB-435,> 28 µM
same,GI50,A549 NSCLC,> 28 µM
same,TGI,A549 NSCLC,> 28 µM
same,GI50,TK-10 renal,15.1 µM
same,TGI,TK-10 renal,> 28 µM
same,GI50,SF-268 CNS,21.5 µM
same,TGI,SF-268 CNS,> 28 µM
same,GI50,NCI-H460 lung,9.62 µM
same,TGI,NCI-H460 lung,> 28 µM
same,GI50,HCC-2998 colon,16.6 µM
same,TGI,HCC-2998 colon,> 28 µM
same,GI50,MALME-3M melanoma,13.8 µM
same,TGI,MALME-3M melanoma,> 28 µM
same,GI50,SW-620 colon,6.89 µM
same,TGI,SW-620 colon,18.7 µM
same,GI50,SK-MEL-5 melanoma,14 µM
same,TGI,SK-MEL-5 melanoma,> 28 µM
same,GI50,K-562 leukemia,4.79 µM
same,TGI,K-562 leukemia,16.1 µM
same,GI50,IGROV1 ovarian,> 28 µM
same,TGI,IGROV1 ovarian,> 28 µM
same,GI50,SK-MEL-2 melanoma,4.94 µM
same,TGI,SK-MEL-2 melanoma,16.3 µM
same,GI50,COLO 205 colon,> 28 µM
same,TGI,COLO 205 colon,> 28 µM
same,GI50,NCI-H23 lung,13.4 µM
same,TGI,NCI-H23 lung,> 28 µM
same,GI50,OVCAR-8 ovarian,7.21 µM
same,TGI,OVCAR-8 ovarian,> 28 µM
same,GI50,HCT-116 colon,7.39 µM
same,TGI,HCT-116 colon,> 28 µM
same,GI50,MCF7 breast,3.57 µM
same,TGI,MCF7 breast,> 28 µM
same,GI50,SF-295 CNS,17.8 µM
same,TGI,SF-295 CNS,> 28 µM
same,GI50,NCI-H226 lung,24.1 µM
same,TGI,NCI-H226 lung,> 28 µM
same,GI50,CCRF-CEM leukemia,5.74 µM
same,TGI,CCRF-CEM leukemia,> 28 µM
same,GI50,UO-31 renal,15.2 µM
same,TGI,UO-31 renal,> 28 µM
same,GI50,HT29 colon,4.85 µM
same,TGI,HT29 colon,19.6 µM
same,GI50,SF-539 CNS,5.8 µM
same,TGI,SF-539 CNS,16.5 µM
same,GI50,BT-549 breast,4.84 µM
same,TGI,BT-549 breast,18.4 µM
same,GI50,SN12C renal,5.28 µM
same,TGI,SN12C renal,> 28 µM
same,GI50,PC-3 prostate,13 µM
same,TGI,PC-3 prostate,> 28 µM
same,GI50,UACC-257 melanoma,19.2 µM
same,TGI,UACC-257 melanoma,> 28 µM
same,GI50,MDA-MB-468 breast,5.88 µM
same,TGI,MDA-MB-468 breast,18.5 µM
same,GI50,NCI-H522 lung,6.56 µM
same,TGI,NCI-H522 lung,25.2 µM
same,GI50,HOP-62 NSCLC,9.43 µM
same,TGI,HOP-62 NSCLC,> 28 µM
same,GI50,DU-145 prostate,10.1 µM
same,TGI,DU-145 prostate,> 28 µM
same,GI50,HCT-15 colon,7.41 µM
same,TGI,HCT-15 colon,> 28 µM
same,GI50,EKVX NSCLC,16.6 µM
same,TGI,EKVX NSCLC,> 28 µM
same,GI50,SNB-75 CNS,4.42 µM
same,TGI,SNB-75 CNS,26.3 µM
same,GI50,A498 renal,> 28 µM
same,TGI,A498 renal,> 28 µM
same,GI50,NCI/ADR-RES ovarian,7.31 µM
same,TGI,NCI/ADR-RES ovarian,24.2 µM
same,GI50,OVCAR-4 ovarian,> 28 µM
same,TGI,OVCAR-4 ovarian,> 28 µM
same,GI50,SNB-19 CNS,> 28 µM
same,TGI,SNB-19 CNS,> 28 µM
same,GI50,OVCAR-5 ovarian,> 28 µM
same,TGI,OVCAR-5 ovarian,> 28 µM
same,GI50,CAKI-1 renal,15.3 µM
same,TGI,CAKI-1 renal,> 28 µM
same,GI50,LOX IMVI melanoma,4.59 µM
same,TGI,LOX IMVI melanoma,9.32 µM
same,GI50,RPMI-8226 leukemia,3.35 µM
same,TGI,RPMI-8226 leukemia,> 28 µM
